Laboratory results published in BindingDB's records for doi:10.1111/j.1747-0285.2012.01371.x (Korea Research Institute of Chemical Technology, 2012).

The compounds below were run against 5-lipoxygenase (Rattus norvegicus) (assay: 5-LOX enzyme assay was carried out with some modifications of ferric oxidation of xylenol orange (FOX) assay, which is based on the complex formation of Fe3+/ xylenol orange with absorption at visible light.). Conditions: pH 7.4.
Compound `Oc1ccc(Nc2nc(-c3ccc(Br)cc3)cs2)cc1` [N-aryl-4-aryl-1,3-thiazole-2-amine, 4] has an IC50 of 82 nM. For `O=[N+]([O-])c1ccc(-c2csc(Nc3ccc(O)cc3)n2)cc1` [N-aryl-4-aryl-1,3-thiazole-2-amine, 6], the IC50 was 25 nM. `Oc1ccc(Nc2nc(-c3ccccc3F)cs2)cc1` [N-aryl-4-aryl-1,3-thiazole-2-amine, 7] was tested, and the IC50 was 81 nM. `Oc1ccc(Nc2nc(-c3cccc(F)c3)cs2)cc1` [N-aryl-4-aryl-1,3-thiazole-2-amine, 8] showed an IC50 of 65 nM. `Oc1ccc(Nc2nc(-c3cc(Cl)ccc3Cl)cs2)cc1` [N-aryl-4-aryl-1,3-thiazole-2-amine, 11] showed an IC50 of 92 nM. For `Oc1ccc(Nc2nc(-c3ccc(F)cc3F)cs2)cc1` [N-aryl-4-aryl-1,3-thiazole-2-amine, 12], the IC50 was 85 nM. `Oc1c(Cl)cc(Nc2nc(-c3ccc(Cl)cc3)cs2)cc1Cl` [N-aryl-4-aryl-1,3-thiazole-2-amine, 13] gave an IC50 of 146 nM. Compound `Cc1cc(Nc2nc(-c3ccc(Cl)cc3)cs2)cc(C)c1O` [N-aryl-4-aryl-1,3-thiazole-2-amine, 14] has an IC50 of 127 nM. With `Cc1cc(Nc2nc(-c3ccc(F)cc3)cs2)cc(Cl)c1O` [N-aryl-4-aryl-1,3-thiazole-2-amine, 15] the IC50 was 63 nM. For `Oc1c(Cl)cc(Nc2nc(-c3ccc(F)cc3)cs2)cc1Cl` [N-aryl-4-aryl-1,3-thiazole-2-amine, 16], the IC50 was 93 nM. For `Cc1cc(Nc2nc(-c3ccc(F)cc3)cs2)c(C)cc1O` [N-aryl-4-aryl-1,3-thiazole-2-amine, 17], the IC50 was 104 nM. In the case of `Nc1ccc(Nc2nc(-c3ccccc3)cs2)cc1` [N-aryl-4-aryl-1,3-thiazole-2-amine, 24], the IC50 is reported as 120 nM. Compound `Nc1ccc(Nc2nc(-c3ccc(F)cc3)cs2)cc1` [N-aryl-4-aryl-1,3-thiazole-2-amine, 25] has an IC50 of 105 nM. For `Nc1ccc(Nc2nc(-c3ccc(Br)cc3)cs2)cc1` [N-aryl-4-aryl-1,3-thiazole-2-amine, 26], the IC50 was 201 nM. For `Nc1ccc(Nc2nc(-c3ccc([N+](=O)[O-])cc3)cs2)cc1` [N-aryl-4-aryl-1,3-thiazole-2-amine, 28], the IC50 was 92 nM. Compound `Nc1ccccc1Nc1nc(-c2ccc(Cl)cc2)cs1` [N-aryl-4-aryl-1,3-thiazole-2-amine, 29] has an IC50 of 421 nM. `Nc1ccc(Nc2nc(-c3cc(Cl)ccc3Cl)cs2)cc1` [N-aryl-4-aryl-1,3-thiazole-2-amine, 31] gave an IC50 of 60 nM. With `Nc1ccc(Nc2nc(-c3ccc(F)cc3F)cs2)cc1` [N-aryl-4-aryl-1,3-thiazole-2-amine, 32] the IC50 was 70 nM.
